“And” between values parts separate entries of the source, which are not always exact repeats. Equal entries are not always repeated. Inconclusive results and toxic doses are left out.

This test deals with P388 leukemia ip, CD2F1 mice, survival T/C. Description: NCI In Vivo Anticancer Drug Screen. Data for tumor model P388 Leukemia (intraperitoneal) in CD2F1 (CDF1) mice. The conditions noted are these: endpoint: median survival time, higher = longer survival. The method, boiled down:
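Mice carrying the transplanted tumor received test compound or vehicle. Survival was recorded in each group, and the value is the treated-group measurement divided by that of the vehicle-treated control group.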

[1] abbreviates: dose: 60.0 mg/kg/injection, schedule: Q01DX005 (ip), vehicle: saline with Tween-80.
The mark [2] stands for this setting: dose: 120.0 mg/kg/injection, schedule: Q01DX005 (ip), vehicle: saline with Tween-80.
The mark [3] stands for this setting: dose: 50.0 mg/kg/injection, schedule: Q01DX009 (ip), vehicle: saline with Tween-80.
[4] abbreviates: dose: 100.0 mg/kg/injection, schedule: Q01DX009 (ip), vehicle: saline with Tween-80.
The mark [5] stands for this setting: dose: 200.0 mg/kg/injection, schedule: Q01DX009 (ip), vehicle: saline with Tween-80.
Where [6] appears, read: dose: 50.0 mg/kg/injection, schedule: Q01DX009 (ip), vehicle: Klucel (hydroxypropylcellulose) (HPC).
The mark [7] stands for this setting: dose: 100.0 mg/kg/injection, schedule: Q01DX009 (ip), vehicle: Klucel (hydroxypropylcellulose) (HPC).
Setting [8] is: dose: 200.0 mg/kg/injection, schedule: Q01DX009 (ip), vehicle: Klucel (hydroxypropylcellulose) (HPC).

As for `Nc1nc(Br)c(Br)nc1N`, the T/C is 100 % of control (dose: 100.0 mg/kg/injection, schedule: Q04DX003 (ip), vehicle: other); 100 % of control (dose: 200.0 mg/kg/injection, schedule: Q04DX003 (ip), vehicle: other); 95 % of control (dose: 400.0 mg/kg/injection, schedule: Q04DX003 (ip), vehicle: other).
Turning to `COc1cc(C(c2c(O)c3ccccc3oc2=O)N2CCCC2)cc(OC)c1OC` (stereo not given), the T/C runs as follows: under setting [1], 107 % of control; under setting [2], 101 % of control; (dose: 240.0 mg/kg/injection, schedule: Q01DX005 (ip), vehicle: saline with Tween-80) 104 % of control.
For `FC(F)(F)C(Cl)(c1ccc(Cl)cc1)c1ccc(Cl)cc1`, the T/C is, setting by setting: (dose: 50.0 mg/kg/injection, schedule: Q01DX005 (sc), vehicle: olive oil, sesame oil, peanut oil) 96 % of control; (dose: 100.0 mg/kg/injection, schedule: Q01DX005 (sc), vehicle: olive oil, sesame oil, peanut oil) 96 % of control; (dose: 200.0 mg/kg/injection, schedule: Q01DX005 (sc), vehicle: olive oil, sesame oil, peanut oil) 95 % of control; (dose: 400.0 mg/kg/injection, schedule: Q01DX005 (sc), vehicle: olive oil, sesame oil, peanut oil) 100 % of control.
On to `C1CSC(CCC2SCCCS2)SC1`, for which the T/C under setting [3] is 92 % of control, the T/C under setting [4] is 90 % of control and the T/C under setting [5] is 87 % of control.
Consider `O=S(=O)(CCCl)c1ccccc1`, for which the T/C (dose: 100.0 mg/kg/injection, schedule: Q04DX003 (ip), vehicle: Klucel (hydroxypropylcellulose) (HPC)) is 104 % of control; the T/C (dose: 200.0 mg/kg/injection, schedule: Q04DX003 (ip), vehicle: Klucel (hydroxypropylcellulose) (HPC)) is 106 % of control; the T/C (dose: 400.0 mg/kg/injection, schedule: Q04DX003 (ip), vehicle: Klucel (hydroxypropylcellulose) (HPC)) was 97 % of control.
Take `COc1cc2ccc3c(c2cc1OC)CNCC3`: the T/C (dose: 50.0 mg/kg/injection, schedule: Q01DX009 (ip), vehicle: saline) is 100 % of control and the T/C (dose: 100.0 mg/kg/injection, schedule: Q01DX009 (ip), vehicle: saline) is 100 % of control.
With `CCCCN1C(=O)C(=O)N(CCc2ccc(OC)c(OC)c2)C1=O`, the T/C reads like this: under setting [6], 91 % of control; under setting [7], 86 % of control; under setting [8], 91 % of control.
With `CCOC(=O)C1=CNc2c(C#N)cnn2C1(C(=O)OCC)c1c[nH]c2ccccc12` (stereo not given), the T/C runs as follows: (dose: 25.0 mg/kg/injection, schedule: Q01DX005 (ip), vehicle: Klucel (hydroxypropylcellulose) (HPC)) 109 % of control; (dose: 50.0 mg/kg/injection, schedule: Q01DX005 (ip), vehicle: Klucel (hydroxypropylcellulose) (HPC)) 102 % of control; (dose: 100.0 mg/kg/injection, schedule: Q01DX005 (ip), vehicle: Klucel (hydroxypropylcellulose) (HPC)) 98 % of control; (dose: 200.0 mg/kg/injection, schedule: Q01DX005 (ip), vehicle: Klucel (hydroxypropylcellulose) (HPC)) 109 % of control.
Take `COC(=O)c1nc(N)nc(C(=O)OC)c1C(=O)c1ccc([N+](=O)[O-])cc1`: the T/C reads like this: under setting [1], 105 % of control; under setting [2], 97 % of control.
With `CC(C)C(=O)Nc1ccc(S(=O)(=O)Nc2ccc(N)cc2O)cc1`, the T/C runs as follows: under setting [3], 96 % of control; under setting [4], 101 % of control; under setting [5], 104 % of control.
With `CC1OC(c2ccc3c(c2O)C(=O)C2=C(C3=O)[C@H]3OC(=O)C[C@H]3O[C@@H]2C)CC(N(C)C)C1O` (stereo not given in full), the T/C was 91 % of control (dose: 1.5 mg/kg/injection, schedule: Q01DX005 (ip), vehicle: other); 86 % of control (dose: 750.0 micrograms/kg/injection, schedule: Q01DX005 (ip), vehicle: other); 90 % of control (dose: 1500.0 micrograms/kg/injection, schedule: Q01DX005 (ip), vehicle: other); 88 % of control (dose: 3000.0 micrograms/kg/injection, schedule: Q01DX005 (ip), vehicle: other).
As to `COc1cccc2c1C(=O)c1c(O)c3c(c(O)c1C2=O)C[C@@](O)(C(=O)CO)C[C@@H]3OC1CC(N2CCOCC2)C(O)C(C)O1` (stereo not given in full), the T/C (dose: 5.0 micrograms/kg/injection, schedule: Q04DX003 (ip), vehicle: water) is 102 % of control; the T/C (dose: 10.0 micrograms/kg/injection, schedule: Q04DX003 (ip), vehicle: water) is 107 % of control; the T/C (dose: 20.0 micrograms/kg/injection, schedule: Q04DX003 (ip), vehicle: water) was 106 % of control; the T/C (dose: 22.0 micrograms/kg/injection, schedule: Q04DX003 (iv), vehicle: saline + alcohol) is 153 % of control; the T/C (dose: 31.25 micrograms/kg/injection, schedule: Q04DX003 (ip), vehicle: water) is 106 % of control; the T/C (dose: 33.0 micrograms/kg/injection, schedule: Q04DX003 (iv), vehicle: saline + alcohol) is 180 % of control. Also, the T/C was 104 % of control (dose: 40.0 micrograms/kg/injection, schedule: Q04DX003 (ip), vehicle: water); 173 % of control (dose: 50.0 micrograms/kg/injection, schedule: Q04DX003 (iv), vehicle: saline + alcohol); 100 % of control (dose: 62.5 micrograms/kg/injection, schedule: Q04DX003 (ip), vehicle: water); 113 % of control (dose: 75.0 micrograms/kg/injection, schedule: Q04DX003 (iv), vehicle: saline + alcohol); 111 % of control (dose: 125.0 micrograms/kg/injection, schedule: Q04DX003 (ip), vehicle: water); 110 % of control (dose: 250.0 micrograms/kg/injection, schedule: Q04DX003 (ip), vehicle: water). The T/C (dose: 500.0 micrograms/kg/injection, schedule: Q04DX003 (ip), vehicle: water) is 99 % of control.
Consider `Nc1nc(-c2ccccn2)cc2ccc(Cl)cc12`, for which the T/C is 101 % of control (dose: 100.0 mg/kg/injection, schedule: Q01DX001 (ip), vehicle: saline with Tween-80); 104 % of control (dose: 200.0 mg/kg/injection, schedule: Q01DX001 (ip), vehicle: saline with Tween-80); 104 % of control (dose: 400.0 mg/kg/injection, schedule: Q01DX001 (ip), vehicle: saline with Tween-80).
Turning to `Cc1ccc(/C=N/NC(N)=S)s1`, the T/C by setting is: (dose: 12.5 mg/kg/injection, schedule: Q01DX009 (ip), vehicle: saline with Tween-80) 100 % of control; (dose: 25.0 mg/kg/injection, schedule: Q01DX009 (ip), vehicle: saline with Tween-80) 108 % of control; under setting [3], 107 % of control; under setting [4], 106 % of control.
Turning to `CN(C)CN1C(=O)S/C(=C2\C(=O)N(CN(C)C)c3ccccc32)C1=O`, the T/C runs as follows: (dose: 30.0 mg/kg/injection, schedule: Q01DX005 (ip), vehicle: Klucel (hydroxypropylcellulose) (HPC)) 118 % of control; (dose: 60.0 mg/kg/injection, schedule: Q01DX005 (ip), vehicle: Klucel (hydroxypropylcellulose) (HPC)) 120 % of control and 121 % of control; (dose: 120.0 mg/kg/injection, schedule: Q01DX005 (ip), vehicle: Klucel (hydroxypropylcellulose) (HPC)) 113 % of control; (dose: 240.0 mg/kg/injection, schedule: Q01DX005 (ip), vehicle: Klucel (hydroxypropylcellulose) (HPC)) 120 % of control.
On to `Nc1nc2[nH]c(=O)[nH]c(=O)c2[nH]1`, for which the T/C was 100 % of control (dose: 50.0 mg/kg/injection, schedule: Q01DX005 (ip), vehicle: saline with Tween-80); 102 % of control (dose: 100.0 mg/kg/injection, schedule: Q01DX005 (ip), vehicle: saline with Tween-80); 109 % of control (dose: 200.0 mg/kg/injection, schedule: Q01DX005 (ip), vehicle: saline with Tween-80).
Take `C=CCSc1ccc(Cl)cc1[N+](=O)[O-]`: the T/C is 101 % of control under setting [6], 100 % of control under setting [7] and 100 % of control under setting [8].
Consider `CCOC(=O)CCc1cnc[nH]1`, for which the T/C reads like this: (dose: 60.0 mg/kg/injection, schedule: Q01DX005 (ip), vehicle: saline) 108 % of control; (dose: 120.0 mg/kg/injection, schedule: Q01DX005 (ip), vehicle: saline) 106 % of control; (dose: 240.0 mg/kg/injection, schedule: Q01DX005 (ip), vehicle: saline) 98 % of control.
With `Cc1cc(C(=O)Nc2ccc(NC3=NCCN3)cc2)cc(C(=O)Nc2ccc(NC3=NCCN3)cc2)c1`, the T/C (dose: 3.12 mg/kg/injection, schedule: Q01DX005 (ip), vehicle: saline with Tween-80) was 100 % of control; the T/C (dose: 6.25 mg/kg/injection, schedule: Q01DX005 (ip), vehicle: saline with Tween-80) was 107 % of control; the T/C (dose: 12.5 mg/kg/injection, schedule: Q01DX005 (ip), vehicle: saline with Tween-80) is 106 % of control.

(Values after PubChem BioAssay AID330 (DTP/NCI, 2004).)
